Several values for one entry are separate records, joined by “and”; a condition that tells them apart may be missing. Equal entries are not always repeated. Where two headings read alike, the source gives them in different places.
Assays:
minipigs [1] = tested on: minipigs
minipigs [2] = settings: ongoing 9-month study past month 7
minipigs [3] = settings: 6 months
clinical [4] = settings: human, plasma
rats [5] = assay: in vivo
Experimental: (§1) Following this study, 3- and 6-month repeat dose toxicology studies were completed at doses of 30, 100, and 300 mg/kg.

in vivo [6] = settings: both, rat, in vivo
Experimental: as §1

rats [7] = settings: 6 months, 30, 100, 300 mg/kg
healthy volunteers [8] = tested on: healthy volunteers
in vivo [9] = settings: both, minipig
in vivo [10] = settings: both, minipig; remark: listed apart in the source
D1 dopamine receptor = D1 dopamine receptor (Homo sapiens, UniProt P21728)
Experimental: (§2) These concentrations were tested in cell lines expressing select human cloned dopamine receptors (D2S, D3).

D5 dopamine receptor = D5 dopamine receptor (Homo sapiens, UniProt P21918)
Experimental: as §2

in vivo [11] = settings: male, dog, po
healthy volunteers [12] = assay: clinical
Experimental: (§3) Safety observations included vital signs, physical examination, clinical laboratory tests, ECGs, and adverse event reporting. Blood and urine samples were collected pre-dose and for 72 hours post-dose to assess the pharmacokinetics.

clinical [13] = settings: human; for AUC(0-t): AUC(0-t) (mean ± SD); for Vd/F: Vz/F (mean ± SD); for CL renal: plasma and urine
Experimental: as §3

[14] = Day 1, 100 mg oral dose, fasted
[15] = Day 7, 50 mg Q12H on Days 3 through 6 and a single dose on Day 7, fasted
[16] = Day 7, 100 mg Q12H on Days 3 through 6 and a single dose on Day 7, fasted
[17] = single 150 mg oral dose, fasted
[18] = single 300 mg oral dose, fasted
[19] = plasma, po, 50 mg, single 50 mg oral dose, fasted
[20] = plasma, po, 150 mg, single 150 mg oral dose, fasted
[21] = plasma, po, 150 mg, single 150 mg oral dose, fed
[22] = plasma, po, 300 mg, single 300 mg oral dose, fasted

D1 dopamine receptor, sequence (P21728 whole entry): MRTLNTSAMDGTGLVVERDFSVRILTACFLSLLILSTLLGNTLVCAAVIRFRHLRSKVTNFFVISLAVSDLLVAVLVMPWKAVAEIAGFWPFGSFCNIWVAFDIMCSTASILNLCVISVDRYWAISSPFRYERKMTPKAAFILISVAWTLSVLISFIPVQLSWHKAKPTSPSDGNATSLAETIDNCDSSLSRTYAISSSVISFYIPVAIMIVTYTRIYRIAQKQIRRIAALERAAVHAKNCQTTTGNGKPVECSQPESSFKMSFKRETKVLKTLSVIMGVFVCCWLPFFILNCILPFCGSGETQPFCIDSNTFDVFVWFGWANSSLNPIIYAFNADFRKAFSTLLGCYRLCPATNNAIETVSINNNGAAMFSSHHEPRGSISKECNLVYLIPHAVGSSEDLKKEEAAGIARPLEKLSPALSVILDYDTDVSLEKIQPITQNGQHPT
D5 dopamine receptor, sequence (P21918 whole entry): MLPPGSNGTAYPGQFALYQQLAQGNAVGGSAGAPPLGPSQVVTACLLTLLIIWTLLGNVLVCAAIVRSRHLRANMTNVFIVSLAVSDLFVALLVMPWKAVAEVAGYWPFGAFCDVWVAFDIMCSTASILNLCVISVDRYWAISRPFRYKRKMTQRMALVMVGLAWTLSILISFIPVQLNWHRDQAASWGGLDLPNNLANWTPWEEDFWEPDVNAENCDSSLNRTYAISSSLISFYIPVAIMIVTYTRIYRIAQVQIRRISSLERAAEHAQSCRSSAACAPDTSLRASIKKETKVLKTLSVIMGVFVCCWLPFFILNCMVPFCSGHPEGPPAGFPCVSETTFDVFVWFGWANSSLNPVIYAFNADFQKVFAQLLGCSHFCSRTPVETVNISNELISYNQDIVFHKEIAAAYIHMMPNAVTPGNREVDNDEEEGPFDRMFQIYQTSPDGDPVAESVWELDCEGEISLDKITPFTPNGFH

## CCCN[C@@H]1CCc2nc(N)sc2C1 [(R)-pramipexole, (6R)-4,5,6,7-tetrahydro-N6-propyl-2,6-benzothiazole-diamine]
Minipigs [1]; both, minipig, in vivo, 75 mg/kg, 14 days
  incidence of emesis (at least one episode): 5 of 8
Minipigs [1]; minipigs, 2 weeks (14 days)
  NOAEL: greater than or equal to 75 mg/kg
Minipigs [2]
  deaths and clinical observations: no deaths attributed to test article or significant clinical observations
Minipigs [3]
  mortality and clinical observations between the 13-week and 26-week sacrifices: no mortalities attributed to test article or significant clinical observations
Clinical [4]; oral, 50 mg
  Cmax: 191 ± 20.9 ng/mL
  Tmax: 1.75 h
  Vd/F: 346 ± 30.1 L
Clinical [4]; oral, 50 mg, AUC(0-12) (mean ± SD), Day 7, 50 mg Q12H on Days 3 through 6 and a single dose on Day 7, fasted
  AUC(0-t): 1450 ng·h/mL
Clinical [4]; oral, 50 mg, mean exposure AUC(0-12) at Day 7, 50 mg Q12H
  AUC(0-t): 1450 ng·h/mL
Clinical [4]; oral, 100 mg
  Cmax: 306 ± 55 ng/mL
  Tmax: 2 h
Clinical [4]; oral, 100 mg, AUC(0-12) (mean ± SD), Day 7, 100 mg Q12H on Days 3 through 6 and a single dose on Day 7, fasted
  AUC(0-t): 2460 ng·h/mL
Clinical [4]; oral, 100 mg, mean exposure AUC(0-12) at Day 7, 100 mg Q12H
  AUC(0-t): 2460 ng·h/mL
Clinical [4]; po, 50 mg
  AUC(0-inf): 1500 ng·h/mL
  Tmax: 1.83 h
  Vd/F: 306 ± 45.8 L
Clinical [4]; po, 50 mg, AUC(0−12) (mean ± SD), Day 1, 50 mg oral dose, fasted
  AUC(0-t): 1040 ng·h/mL
Clinical [4]; po, 50 mg, AUC(0−t) (mean ± SD), Day 1, 50 mg oral dose, fasted
  AUC(0-t): 1460 ng·h/mL
Clinical [4]; po, 100 mg
  AUC(0-inf): 2570 ng·h/mL
  Cmax: 248 ± 30.4 ng/mL
  Tmax: 1.92 h
  Vd/F: 373 ± 51 L
Clinical [4]; po, 100 mg, AUC(0−12) (mean ± SD), Day 1, 100 mg oral dose, fasted
  AUC(0-t): 1780 ng·h/mL
Clinical [4]; po, 100 mg, AUC(0−t) (mean ± SD), Day 1, 100 mg oral dose, fasted
  AUC(0-t): 2540 ng·h/mL
Male beagle dogs; based on dog data, 70 kg human subject
  human equivalence dose of the MTD: about 3,000 mg
Male beagle dogs; dog, in vivo
  observable effects in dogs: no observable effects
Male beagle dogs; male, beagle, dog, in vivo, 4 days
  functional separation between the (S)- and (R)-enantiomers: 10,000-20,000 fold
Rats [5]; rat, in vivo, 300 mg/kg
  target organ toxicity by histopathology examination: some target organ toxicity
Rats [5]; rats, 3 months, 30, 100, 300 mg/kg
  test article related deaths: no test article related deaths
Rats [5]; rats, high dose 500 mg/kg, 14 days
  mortality: caused mortality
In vivo [6]
  NOAEL at 3 months: 100 mg/kg
  NOAEL at 14 days: 150 mg/kg
Rats [7]
  mortality between the 13-week and 26-week sacrifices: no mortalities at any dose level
Healthy volunteers [8]; 50 mg Q12H
  increase of AUC(0-12) from Day 1 to Day 7: 40%
  increase of Cmax from Day 1 to Day 7: 37%
Healthy volunteers [8]; 50 mg Q12H (Day 1), Fasted
  CL/F (mean ± SD): 571 ± 107 mL/h
Healthy volunteers [8]; 50 mg Q12H (Day 7), Fasted
  CL/F (mean ± SD): 585 ± 81.6 mL/h
Healthy volunteers [8]; 100 mg Q12H
  increase of AUC(0-12) from Day 1 to Day 7: 38%
  increase of Cmax from Day 1 to Day 7: 24%
Healthy volunteers [8]; 100 mg Q12H (Day 1), Fasted
  CL/F (mean ± SD): 665 ± 107 mL/h
Healthy volunteers [8]; 100 mg Q12H (Day 7), Fasted
  CL/F (mean ± SD): 684 ± 76.1 mL/h
Healthy volunteers [8]; Day 1, 50 mg oral dose, fasted
  AUC(0−12) (mean ± SD): 1,035 ± 121 h · ng/mL
  AUC(0−t) (mean ± SD): 1,463 ± 280 h · ng/mL
  AUC(inf) (mean ± SD): 1,502 ± 280 h · ng/mL
  CL/F (mean ± SD): 34300 ± 6420 mL/h
  λz (mean ± SD): 0.1132 ± 0.0230 h⁻¹
Healthy volunteers [8]; [14]
  AUC(0−12) (mean ± SD): 1,776 ± 260 h · ng/mL
  AUC(0−t) (mean ± SD): 2,545 ± 497 h · ng/mL
  CL/F (mean ± SD): 39900 ± 6420 mL/h
  λz (mean ± SD): 0.1073 ± 0.0161 h⁻¹
Healthy volunteers [8]; [15]
  AUC(0-12) (mean ± SD): 1,449 ± 221 h · ng/mL
  CL/F (mean ± SD): 35100 ± 4900 mL/h
  λz (mean ± SD): 0.1025 ± 0.0186 h⁻¹
Healthy volunteers [8]; [16]
  AUC(0-12) (mean ± SD): 2,465 ± 299 h · ng/mL
  CL/F (mean ± SD): 41000 ± 4570 mL/h
  λz (mean ± SD): 0.0894 ± 0.0117 h⁻¹
Healthy volunteers [8]; humans, total daily dose 500 mg as 250 mg Q12H
  projected steady-state exposure (AUC): approximately 7,000 h*ng/mL
Healthy volunteers [8]; multiple oral doses of 50 and 100 mg twice daily
  safety and tolerability: safe and well-tolerated
In vivo [9]
  NOAEL at 14 days: 75 mg/kg
In vivo [10]
  NOAEL at 3 months: 50 mg/kg
D1 dopamine receptor
  interaction with D1 dopamine receptor: no significant interaction
D5 dopamine receptor
  interaction with D5 dopamine receptor: no significant interaction
In vivo [11]
  MTD at 4 days: 75 mg/kg
  NOAEL at 4 days: 25 mg/kg
Healthy volunteers [12]; 50 mg SD, Fasted
  CL/F (mean ± SD): 706 ± 182 mL/h
Healthy volunteers [12]; 150 mg SD, Fasted
  CL/F (mean ± SD): 692 ± 183 mL/h
Healthy volunteers [12]; 150 mg SD, second 150 mg line, Food printed Fasted
  CL/F (mean ± SD): 774 ± 165 mL/h
Healthy volunteers [12]; 300 mg SD, Fasted
  CL/F (mean ± SD): 659 ± 260 mL/h
Healthy volunteers [12]; across dose levels
  urinary excretion of unchanged drug, share of drug elimination: approximately 70%
Healthy volunteers [12]; single 50 mg oral dose, fasted
  CL/F (mean ± SD): 42400 ± 10900 mL/h
  Fe (mean ± SD): 70.7 ± 10.4 % Dose
  Ue (mean ± SD): 35.3 ± 5.19 mg and 35.3 ± 5.19 ^ mg
  λz (mean ± SD): 0.1064 ± 0.0171 h⁻¹
Healthy volunteers [12]; [17]
  CL/F (mean ± SD): 41500 ± 11000 mL/h
  Fe (mean ± SD): 40.3 ± 4.69 % Dose
  Ue (mean ± SD): 60.5 ± 7.04 mg and 60.5 ± 7.04 ^ mg
  λz (mean ± SD): 0.1001 ± 0.0087 h⁻¹
Healthy volunteers [12]; single 150 mg oral dose, fed
  CL/F (mean ± SD): 46400 ± 9900 mL/h
  λz (mean ± SD): 0.1152 ± 0.0256 h⁻¹
Healthy volunteers [12]; single 150 mg, fed versus fasted
  effect of a high fat/high calorie meal on absorption and elimination: essentially no effect
Healthy volunteers [12]; [18]
  CL/F (mean ± SD): 39500 ± 15600 mL/h
  Fe (mean ± SD): 65.8 ± 9.33 % Dose
  Ue (mean ± SD): 198 ± 28.0 mg and 198 ± 28.0 ^ mg
  λz (mean ± SD): 0.1151 ± 0.0309 h⁻¹
Healthy volunteers [12]; single oral 50, 150, 300 mg
  time of maximum concentration post-dose: approximately 2 hours
Healthy volunteers [12]; single oral doses of 50, 150, 300 mg
  safety and tolerability: safe and well-tolerated
Clinical [13]; blood, po, 50 mg, single 50 mg oral dose, fasted
  AUC(0-t): 989 ng·h/mL
Clinical [13]; blood, po, 50 mg, AUC(inf) (mean ± SD), single 50 mg oral dose, fasted
  AUC(0-inf): 1240 ng·h/mL
Clinical [13]; blood, po, 150 mg, single 150 mg oral dose, fasted
  AUC(0-t): 3390 ng·h/mL
Clinical [13]; blood, po, 150 mg, AUC(inf) (mean ± SD), single 150 mg oral dose, fasted
  AUC(0-inf): 3820 ng·h/mL
Clinical [13]; blood, po, 300 mg, single 300 mg oral dose, fasted
  AUC(0-t): 8340 ng·h/mL
Clinical [13]; in vivo, oral, 150 mg
  Cmax: 315 ± 62 ng/mL
  Tmax: 2.58 h
Clinical [13]; in vivo, oral, 150 mg, AUC (inf) (mean ± SD), CL001, 150 mg SD, second 150 mg line, Food printed Fasted
  AUC(0-inf): 3400 ng·h/mL
Clinical [13]; in vivo, oral, 150 mg, CL001, 150 mg SD, second 150 mg line, Food printed Fasted
  AUC(0-t): 3100 ng·h/mL
Clinical [13]; in vivo, oral, 150 mg, 150 mg SD, second 150 mg line, Food printed Fasted
  Vd/F: 406 ± 62.8 L
Clinical [13]; in vivo, po, 300 mg, AUC(inf) (mean ± SD), single 300 mg oral dose, fasted
  AUC(0-inf): 8620 ng·h/mL
Clinical [13]; po, 50 mg
  CL renal: 628 ± 149 mL/min
Clinical [13]; po, 150 mg
  CL renal: 310 ± 74.3 mL/min
Clinical [13]; po, 300 mg
  CL renal: 441 ± 159 mL/min
Clinical [13]; [19]
  AUC(0-t): 989 ± 295 ng·h/mL
  Vd/F: 395 ± 61.9 L
Clinical [13]; plasma, po, 50 mg, AUC(inf) (mean ± SD), single 50 mg oral dose, fasted
  AUC(0-inf): 1250 ng·h/mL
Clinical [13]; plasma, po, 50 mg, mean exposure (AUC0-∞), single oral 50 mg, fasted
  AUC(0-inf): 1250 ng·h/mL
Clinical [13]; plasma, po, 150 mg
  Cmax: 360 ng/mL
Clinical [13]; [20]
  AUC(0-t): 3390 ng·h/mL
  Vd/F: 411 ± 81 L
Clinical [13]; [21]
  AUC(0-t): 3100 ng·h/mL
  Vd/F: 406 ± 62.8 L
Clinical [13]; plasma, po, 150 mg, AUC(inf) (mean ± SD), single 150 mg oral dose, fasted
  AUC(0-inf): 3820 ng·h/mL
Clinical [13]; plasma, po, 150 mg, AUC(inf) (mean ± SD), single 150 mg oral dose, fed
  AUC(0-inf): 3400 ng·h/mL
Clinical [13]; plasma, po, 150 mg, mean exposure (AUC0-∞), single oral 150 mg, fasted
  AUC(0-inf): 3820 ng·h/mL
Clinical [13]; plasma, po, 300 mg
  Cmax: 781 ng/mL
  Tmax: 1.96 h
Clinical [13]; [22]
  AUC(0-t): 8340 ng·h/mL
  Vd/F: 346 ± 98.5 L
Clinical [13]; plasma, po, 300 mg, AUC(inf) (mean ± SD), single 300 mg oral dose, fasted
  AUC(0-inf): 8620 ng·h/mL
Clinical [13]; plasma, po, 300 mg, mean exposure (AUC0-∞), single oral 300 mg, fasted
  AUC(0-inf): 8620 ng·h/mL

From patent US9849116B2 (KNOPP BIOSCIENCES LLC, priority 2008, dated 2017)
